The test system of data set [1] is Trypanosoma brucei rhodesiense. Nature of the data set: In vivo […] activity against Trypanosoma brucei rhodesiense infected mouse model assessed as clear parasitaemia at 50 mg/kg, ip qd after 4 days. It counts as functional, organism-based. Further details: dose 50 mg/kg.
For another data set, the system named is L6. Nature of the data set: Cytotoxicity against rat L6 cells. It counts as cell-based.
Another data set relates to Giardia intestinalis. Briefly: Antiprotozoal activity against Giardia lamblia assessed as growth inhibition. It counts as functional, organism-based. The conditions noted are these: Giardia duodenalis.
In data set [2] the test system is Trypanosoma brucei rhodesiense. Briefly: Antitrypanosomal activity against Trypanosoma brucei rhodesiense infected mouse model assessed as clear parasitaemia at 50 mg/kg, ip qd for 4 days measured on day 11. It counts as functional, organism-based. Also noted: dose 50 mg/kg.
Data set [3] deals with Trypanosoma brucei rhodesiense. Nature of the data set: Antitrypanosomal activity against Trypanosoma brucei rhodesiense assessed as growth inhibition. It counts as functional, organism-based.
The subject of a further data set is Plasmodium falciparum. Nature of the data set: Antiplasmodial activity against Plasmodium falciparum assessed as growth inhibition. It counts as functional, organism-based.
For a further data set, the system named is Trypanosoma cruzi. Briefly: Antitrypanosomal activity against Trypanosoma cruzi assessed as growth inhibition. It counts as functional, organism-based.
The test system of the next data set is Mus musculus. Nature of the data set: Toxicity in mouse infected with Trypanosoma brucei rhodesiense assessed as death at 50 mg/kg, ip qd after 2 administeration. It counts as organism-based. Further details: dose 50 mg/kg, route intraperitoneal. The conditions noted are these: in vivo.
Data set [4] relates to Trypanosoma brucei rhodesiense. Nature of the data set: Antitrypanosomal activity against Trypanosoma brucei rhodesiense infected mouse model assessed as clear parasitaemia at 50 mg/kg, ip qd for 4 days measured on day 9. Further details: dose 50 mg/kg. It counts as functional, organism-based.

SMILES strings stand for the structures. Calls of active or inactive are those of the source. The rule behind the calls is not given here.

Take `CCNC(=O)c1noc(-c2cc(C(C)C)c(O)cc2O)c1NC(=O)CCN1CCOCC1`: the result in data set [1] and in [2] was Active. Further, the IC50 came out at 146 nM in the data set with L6; 983 nM in the data set on Giardia intestinalis; 22 nM in [3]; 37 nM in the data set with Plasmodium falciparum; 16700 nM in the data set on Trypanosoma cruzi.
Take `CCNC(=O)c1nnn(-c2cc(C(C)C)c(O)cc2O)c1-c1ccc(CNCN2CCOCC2)cc1`: the IC50 in the data set with L6 is 264 nM; in the data set with Giardia intestinalis it was 4460 nM; in data set [3], 4 nM; in the data set with Plasmodium falciparum, 4 nM; in the data set with Trypanosoma cruzi it was 17500 nM. Also, the Activity result with Mus musculus was “Toxic”.
Consider `Nc1nc(N)nc(Nc2ccc([As]3SCC(CO)S3)cc2)n1` (centres undefined) [MELARSOPROL], for which the IC50 in data set [3] turned out to be 3 nM.
Regarding `CCNC(=O)c1noc2c1CN(C(=O)c1cc(C(C)C)c(O)cc1O)CC2`, the IC50 is 110 nM with L6; 4360 nM in the data set on Giardia intestinalis; 971 nM in [3]; 4520 nM in the data set with Plasmodium falciparum; 996 nM in the data set on Trypanosoma cruzi.
The matching figures for `CCNC(=O)c1noc(-c2cc(C(C)C)c(O)cc2O)c1NC(=O)[C@@H]1CC[C@H](C(=O)OC)C1`: 40 nM, 6430 nM, 763 nM, 26 nM and 1460 nM.
For `CCNC(=O)c1nnn(-c2cc(C(C)C)c(O)cc2O)c1-c1ccc(CN2CCOCC2)cc1` the same measures were 2 nM, 67 nM, 1 nM, 1 nM and 27 nM.
Regarding `Cc1ncc([N+](=O)[O-])n1CCO` [METRONIDAZOLE], in the data set on Giardia intestinalis, the IC50 was 580 nM.
As for `CCNC(=O)c1noc(-c2cc(C(C)C)c(O)cc2O)c1NC(=O)c1cc(CN2CCOCC2)on1`, the IC50 with L6 amounted to 279 nM; with Giardia intestinalis, 12800 nM; in [3], 10 nM; with Plasmodium falciparum it was 36 nM; with Trypanosoma cruzi, 8060 nM.
The matching figures for `CCOC(=O)c1noc2c1CN(C(=O)c1cc(C(C)C)c(O)cc1O)CC2`: 563 nM, 2460 nM, 52400 nM, 7260 nM and 616 nM.
The matching figures for `CCNC(=O)c1noc(-c2cc(C(C)C)c(O)cc2O)c1NC(=O)c1ccco1`: 25 nM, 2360 nM, 12 nM, 17 nM and 1380 nM.
As to `CCNC(=O)c1noc(-c2cc(C(C)C)c(O)cc2O)c1NC(=O)C1CCC(OC)CC1` (centres undefined), the IC50 in the data set on L6 amounted to 15 nM; in the data set with Giardia intestinalis it was 8110 nM; in data set [3], 4 nM; in the data set on Plasmodium falciparum it was 12 nM; in the data set with Trypanosoma cruzi it was 2700 nM.
In the case of `CCNC(=O)c1nnn(-c2cc(C(C)C)c(O)cc2O)c1-c1ccc(CC2CCCC2)cc1`, the IC50 in the data set with L6 is 8 nM; in the data set on Giardia intestinalis it was 356 nM; in data set [3], 1 nM; in the data set on Plasmodium falciparum, 2 nM; in the data set with Trypanosoma cruzi, 728 nM.
The matching figures for `CCNC(=O)c1nnn(-c2cc(C(C)C)c(O)cc2O)c1-c1ccc(Cn2ccnc2)cc1`: 11 nM, 400 nM, 3 nM, 1 nM and 4960 nM.
Regarding `CCNC(=O)c1noc(-c2cc(C(C)C)c(O)cc2O)c1NC(=O)c1ccc(CN2CCOCC2)cc1`, the outcome in data set [1] and in data set [4] was Active. Moreover, the IC50 was 201 nM with L6; 9740 nM in the data set with Giardia intestinalis; 18 nM in data set [3]; 25 nM with Plasmodium falciparum; 6590 nM with Trypanosoma cruzi.
For `COc1cc([C@@H]2c3cc4c(cc3[C@H](O)[C@H]3COC(=O)[C@H]23)OCO4)cc(OC)c1OC` [PODOFILOX], the IC50 in the data set with L6 turned out to be 5 nM.
On to `CCNC(=O)c1noc(-c2cc(C(C)C)c(O)cc2O)c1NC(=O)[C@H]1CC[C@H](CNS(=O)(=O)c2ccc(F)cc2)CC1`, for which the IC50 in the data set with L6 is 888 nM; in the data set with Giardia intestinalis, 7570 nM; in data set [3], 126 nM; with Plasmodium falciparum, 117 nM; with Trypanosoma cruzi, 4200 nM.
The matching figures for `CCNC(=O)c1noc(-c2cc(C(C)C)c(O)cc2O)c1NC(=O)c1cc(CC)on1`: 20 nM, 4060 nM, 18 nM, 35 nM and 554 nM.
The matching figures for `CCNC(=O)c1noc(-c2cc(C(C)C)c(O)cc2O)c1NC(=O)c1ccc(OC)cc1`: 7 nM, 3190 nM, 14 nM, 29 nM and 435 nM.
Regarding `O=C(Cn1ccnc1[N+](=O)[O-])NCc1ccccc1` [BENZNIDAZOLE], the IC50 in the data set with Trypanosoma cruzi amounted to 409 nM.

The term IC50 denotes the concentration at which inhibition is half-maximal.
